Article PMC7803423, “Identification of CTL Epitopes on Efflux Pumps of the ATP-Binding Cassette and the Major Facilitator Superfamily of Mycobacterium tuberculosis” (Journal of Immunology Research, 2021)

Tests used:
[1] = molecular target: T1, peptide/HLA-A*0201 complex on T2A2 cells (Homo sapiens, UniProt P04439, D140Y/D185E/D98H/E176V/E277Q/G131W/G231S/I119V/I121R/I166T/I218V/L300P/L318F/N151K/N90K/P208A/P217A/Q86G/Q94H/R138H/R169H/T345S); experiment: Peptide/HLA-A*0201 complex stability assay; format: binding; conditions: time for loss of 50% of peptide/HLA-A*0201 complexes stabilized at 0 h, 50 μg/mL peptide, 18 h, brefeldin A 10 μg/mL 1 h, then 0, 2, 4, 6 h at 37°C, flow cytometry
T1 construct: endogenous in cells; host or cells: T2A2 cells
Protocol: The peptide/MHC complex stabilization assays were performed similarly. T2A2 cells were incubated with 50 μg/mL peptides and 3 μg/mL β2-M for 18 h. Then, 10 μg/mL brefeldin A (203729, Sigma, USA) were added in medium for another 1 h, subsequently washed by serum-free IMDM medium and incubated at 37°C for 0, 2, 4, and 6 h. Finally, cells were washed twice, stained with HLA-A2-PE-Cyanine 7 monoclonal antibody, and analyzed by flow cytometer (FACS Calibur, BD Bioscience, USA). DC50 was defined as an estimate of the time required for the loss of 50% of the peptide/HLA-A^∗0201 complexes stabilized at time 0 h.

HLA-A*0201 on T2A2 cells = molecular target: T2, HLA-A*0201 on T2A2 cells (Homo sapiens, UniProt P04439, D140Y/D185E/D98H/E176V/E277Q/G131W/G231S/I119V/I121R/I166T/I218V/L300P/L318F/N151K/N90K/P208A/P217A/Q86G/Q94H/R138H/R169H/T345S); experiment: T2A2 cell binding affinity assay; conditions: 50 μg/mL peptide + 3 μg/mL β2-M; for FI (fluorescence index): FI = [MFI of the peptide − MFI of the background]/[MFI of the background], T2A2 cells, 18 h; for MFI: T2A2 cells 1 × 10^6 cells/mL, 37°C 18 h, HLA-A2 antibody BB7.2, flow cytometry, background MFI 131
T2 construct: T2A2 cells (1 × 10^6 cells/mL) resuspended in serum-free IMDM medium were seeded in 24-well plates; endogenous in cells; host or cells: T2A2 cells

[2] = tested on: peptide-induced CTLs from HLA-A*02+PPD+ donors; experiment: IFN-γ ELISPOT of peptide-induced CTLs in vitro; format: cell-based, human; conditions: CTLs induced with peptide-loaded DCs from HLA-A*02+PPD+ donors, day 21; stimulators peptide-loaded T2A2 cells, 18 h
[3] = tested on: peptide-induced CD8+ T cells from HLA-A*02+ PPD+ / PPD− donors; experiment: Intracellular cytokine IFN-γ staining (ICS) of peptide-induced CTLs in vitro; format: cell-based, human; conditions: for CD8+ IFN-γ+ T cells, PPD+ donors compared with PBS-treated group: n = 3 donors; for CD8+ IFN-γ+ T cells, PPD+ donors compared with PPD− donors: n = 3 donors each, Student's t-test
[4] = tested on: peptide-loaded T2A2 cells; experiment: LDH lysis assay with CTLs from immunized mice; format: in vivo, HLA-A2.1/K^b transgenic mice; conditions: peptide-loaded T2A2 target cells, n = 5
IFN-γ = experiment: Serum IFN-γ ELISA after peptide immunization; format: in vivo, HLA-A2.1/K^b transgenic mice; conditions: serum day 11, n = 5
[5] = tested on: CD8+ T cells of splenic lymphocytes; experiment: ICS assay of restimulated splenic lymphocytes from immunized mice; format: in vivo, HLA-A2.1/K^b transgenic mice; conditions: ICS on day 7 of restimulation, n = 5
[6] = tested on: peptide-pulsed T2A2 cells; experiment: LDH cytotoxicity assay of peptide-induced CTLs in vitro; format: cell-based, human; conditions: E : T ratio 50 : 1, CTLs from HLA-A*02+PPD+ donors, T2A2 cells pulsed with corresponding peptide, 4 h, n = 4
[7] = CFA day -14 then peptide in IFA

Row | Sequence | DC50 [1] [h] | FI (fluorescence index) (HLA-A*0201 on T2A2 cells) | MFI (HLA-A*0201 on T2A2 cells) | further results
1 | SLVSQPPTL [Rv1218c-p280, predicted HLA-A2-restricted 9-mer peptide … from MTB efflux pump antigen Rv1218c] | <2 | 1.62 | 353 | –
2 | YLLGGTVVV [Rv1877-p71, predicted HLA-A2-restricted 9-mer peptide … from MTB efflux pump antigen Rv1877] | >2 | 2.17 | 419 | –
3 | VLAADAVFV [Rv2459c-p469, predicted HLA-A2-restricted 9-mer peptide … from MTB efflux pump antigen Rv2459c] | >4 | 2.36 | 440 | IFN-γ secretion of peptide-induced CTLs (ELISPOT) [2]: secreted IFN-γ most potently; CD8+ IFN-γ+ T cells, PPD+ donors compared with PBS-treated group [3]: more CD8^+ IFN-γ^+ T cells than the PBS-treated group; CD8+ IFN-γ+ T cells, PPD+ donors compared with PPD− donors [3]: significantly more CD8^+ IFN-γ^+ T cells
4 | SLADRLTVI [Rv0933-p208, predicted HLA-A2-restricted 9-mer peptide … from MTB efflux pump antigen Rv0933] | <2 | 2.59 | 479 | –
5 | ALCEKVTII [Rv1218c-p200, predicted HLA-A2-restricted 9-mer peptide … from MTB efflux pump antigen Rv1218c] | > 4 | 1.75 | 366 | DC50 ([1]; listed as Rv1218c-P200): >4 h
6 | TLFKTIVGL [Rv2477c-p362, predicted HLA-A2-restricted 9-mer peptide … from MTB efflux pump antigen Rv2477c] | > 2 | 1.72 | 367 | –
7 | GLDPLMENV [Rv1218c-p165, predicted HLA-A2-restricted 9-mer peptide … from MTB efflux pump antigen Rv1218c] | > 2 | 2.6 | 479 | –
8 | LLLSKPDLL [Rv2477c-p173, predicted HLA-A2-restricted 9-mer peptide … from MTB efflux pump antigen Rv2477c] | – | 1.15 | 272 | –
9 | ILIGETIKI [COX-2-p321, reference compound] | >4 | 2.11 | 408 | –
10 | VLATGVTLV [Rv2209-p158, predicted HLA-A2-restricted 9-mer peptide … from MTB efflux pump antigen Rv2209] | >4 | 2.54 | 462 | –
11 | LLDEPSSGL [Rv1218c-p158, predicted HLA-A2-restricted 9-mer peptide … from MTB efflux pump antigen Rv1218c] | >4 | 2.35 | 439 | IFN-γ secretion of peptide-induced CTLs (ELISPOT) [2]: secreted IFN-γ most potently; CD8+ IFN-γ+ T cells, PPD+ donors compared with PPD− donors [3]: significantly more CD8^+ IFN-γ^+ T cells
12 | RLTEELAWV [Rv2477c-p265, predicted HLA-A2-restricted 9-mer peptide … from MTB efflux pump antigen Rv2477c] | – | 1.36 | 315 | –
13 | RLGNVVVEV [Rv2477c-p316, predicted HLA-A2-restricted 9-mer peptide … from MTB efflux pump antigen Rv2477c] | >2 | 1.58 | 348 | –
14 | ALDGLDLTV [Rv1218c-p24] | >4 | 3.32 | 569 | lysis rate, CFA preimmunization, E : T 40 : 1 [4, 7]: 24.6%; lysis rate, CFA preimmunization, E : T 80 : 1 [4, 7]: 41.2%; lysis rate, IFA, E : T 80 : 1 ([4]; IFA immunization): 26.4%; serum IFN-γ concentration (ELISA), CFA preimmunization (IFN-γ; CFA 200 μL s.c. day -14, then peptide 100 μg/mice + T helper epitope 140 μg/mice in IFA days 0, 5, 10): 1817.0 pg/mL; serum IFN-γ concentration (ELISA), IFA (IFN-γ; peptide 100 μg/mice + T helper epitope 140 μg/mice in IFA 1 : 1, s.c. base of tail, days 0, 5, 10): 363 pg/mL; IFN-γ secretion of peptide-induced CTLs (ELISPOT) [2]: secreted IFN-γ most potently; CD8+ IFN-γ+ T cells compared with NS group, CFA preimmunization [5, 7]: produced more CD8^+ IFN-γ^+ T cells than the NS group; CD8+ IFN-γ+ T cells compared with NS group, IFA ([5]; IFA immunization): induced more CD8^+IFN-γ^+ T cells than the NS group; lysis rate [6]: 88.6%; CD8+ IFN-γ+ T cells, PPD+ donors compared with PBS-treated group [3]: more CD8^+ IFN-γ^+ T cells than the PBS-treated group; CD8+ IFN-γ+ T cells, PPD+ donors compared with PPD− donors [3]: significantly more CD8^+ IFN-γ^+ T cells
15 | LMMPQTVTV [Rv2994-p223, predicted HLA-A2-restricted 9-mer peptide … from MTB efflux pump antigen Rv2994] | <2 | 2.28 | 430 | –
16 | WMSIGVFSV [Rv1819c-p122, predicted HLA-A2-restricted 9-mer peptide … from MTB efflux pump antigen Rv1819c] | – | 0.35 | 177 | –
17 | LLDEPTSAL [Rv0933-p186, predicted HLA-A2-restricted 9-mer peptide … from MTB efflux pump antigen Rv0933] | <2 | 2.52 | 465 | –
